According to PMC11281344 (Viruses, 2024):
Read-outs that look alike come from different tables or passages of the source.

How the values were obtained:
[1] = in vitro; conditions: hamster
[2] = tested on: FMDV serotype A [A/TAI/NP05/2017 (NP05)]; experiment: microbe, parasite or virus in culture; type: cell-based, Foot-and-mouth disease virus; conditions: for EC50: read-out: Antiviral Activity (EC50) CPE (Crystal Violet)
[3] = tested on: FMDV serotype A [A/TAI/NP05/2017 (NP05)]; experiment: microbe, parasite or virus in culture; type: cell-based, Foot-and-mouth disease virus
[4] = tested on: HSV-1; conditions: cited from earlier work
[5] = target: FMDV 3D^pol (Foot-and-mouth disease virus serotype O, UniProt P03305); experiment: cell-based; type: cell-based
[6] = tested on: human herpes simplex virus-2 (HSV-2); conditions: cited from earlier work
[7] = tested on: FMDV serotype A [A/TAI/NP05/2017 (NP05)]; experiment: microbe, parasite or virus in culture; type: cell-based, Foot-and-mouth disease virus; conditions: for EC50: read-out: Antiviral Activity (EC50) Viral Copy Number (RT-qPCR)
[8] = tested on: BHK-21 cells
[9] = tested on: ZIKV; conditions: read-out: IC50 against ZIKV; cited from earlier work
[10] = Foot-and-mouth disease virus, BHK-21, read-out: Antiviral Activity (EC50) FMDV-Infected Cells (IPMA)
[11] = Foot-and-mouth disease virus, BHK-21, 24 h
[12] = read-out: Antiviral Activity (EC50) FMDV-Infected Cells (IPMA)

Chain of FMDV 3D^pol (P03305 1863-2332 limits assumed): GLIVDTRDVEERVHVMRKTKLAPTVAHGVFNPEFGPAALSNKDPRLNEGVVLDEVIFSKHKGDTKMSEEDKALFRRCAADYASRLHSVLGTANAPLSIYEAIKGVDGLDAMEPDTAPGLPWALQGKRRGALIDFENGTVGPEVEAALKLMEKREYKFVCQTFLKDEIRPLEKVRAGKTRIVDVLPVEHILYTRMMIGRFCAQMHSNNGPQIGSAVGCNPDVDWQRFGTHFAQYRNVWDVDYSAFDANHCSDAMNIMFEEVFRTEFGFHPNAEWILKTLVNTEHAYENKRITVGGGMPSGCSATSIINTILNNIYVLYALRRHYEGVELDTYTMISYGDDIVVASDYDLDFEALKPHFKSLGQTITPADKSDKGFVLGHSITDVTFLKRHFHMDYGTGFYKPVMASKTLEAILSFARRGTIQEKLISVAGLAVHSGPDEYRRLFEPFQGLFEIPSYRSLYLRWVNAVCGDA

Compound: C=C1C[C@@]23CC[C@H]4[C@@](C)(CCC[C@@]4(C)C(=O)O)[C@@H]2CC[C@@H]1C3 [Kaurenoic acid]
- CC50 [1]: 266.1 ± 2.42 µM
- Antiviral Activity (EC50) CPE (Crystal Violet) [2]: Not inhibit
- Antiviral activity against FMDV infection (result in words) [2]: did not exhibit antiviral activity

Compound: CC1=C[C@]23C(=O)[C@@H](C=C(CO)[C@@H](O)[C@]2(O)[C@H]1O)[C@H]1[C@@H](C[C@H]3C)C1(C)C [Ingenol]
- CC50 [1]: 417.1 ± 2.62 µM

Compound: CC(C)c1ccc2c(c1)CC[C@H]1[C@](C)(C(=O)O)CCC[C@]21C [Dehydroabietic acid]
- EC50 [3, 10]: 34 ± 1.53 µM
- Activity against HSV-1 (result in words) [4]: did not inhibit
- CC50 [1]: 94.8 ± 1.98 µM
- Antiviral activity against FMDV infection (result in words) [2]: exhibited antiviral activities
- EC50 [2, 11]: 41.7 ± 1.62 µM
- IC50 [5]: > 50 µM
- Activity against HSV-2 (result in words) [6]: moderate activity
- Inhibition of viral load (result in words) [7]: low to moderate inhibition
- EC50 [7, 11]: 64.5 ± 1.81 µM

Compound: C=C(C(=O)O)[C@H]1CC[C@H](C)[C@@H]2CC(=O)C(C)=C2C1 [Rupestonic acid]
- CC50 [8]: 72.3 ± 1.86 µM

Compound: CC1(C)O[C@H]2CC(=O)OC[C@]23[C@H]2CC[C@@]4(C)[C@H](c5ccoc5)OC(=O)[C@H]5O[C@]54[C@]2(C)C(=O)C[C@@H]13 [Limonin]
- CC50 [1]: 116 ± 2.07 µM

Compound: C=C[C@@]1(C)CC(=O)[C@]2(O)[C@@]3(C)[C@@H](O)CCC(C)(C)[C@@H]3[C@H](O)[C@H](OC(C)=O)[C@@]2(C)O1 [Forskolin]
- CC50 [1]: 75.9 ± 1.88 µM

Compound: COC(=O)C1=CC[C@@]23CC[C@@H]([C@@](C)(/C=C/C=C(\C)C(=O)O)OC2=O)[C@@]3(OC(C)=O)CC1 [Pseudolaric acid]
- CC50 [8]: 25.3 ± 1.4 µM

Compound: CC(C)=CCC[C@](C)(O)[C@H]1CC[C@]2(C)[C@@H]1[C@H](O)C[C@@H]1[C@@]3(C)CC[C@H](O[C@@H]4O[C@H](CO)[C@@H](O)[C@H](O)[C@H]4O[C@@H]4O[C@H](CO)[C@@H](O)[C@H](O)[C@H]4O)C(C)(C)[C@@H]3CC[C@]12C [Ginsenoside Rg3]
- CC50 [8]: 269.9 ± 2.43 µM

Compound: Brusatol
- EC50 [3, 12]: 0.07 µM
- Antiviral activity against FMDV infection (result in words) [2]: exhibited antiviral activities
- EC50 [2]: 0.18 ± 0.27 µM
- Concentration range of complete inhibition of FMDV [7]: 0.5 to 1 µM
- EC50 [7]: 0.09 µM

Compound: CC(C)(O)CCC(=O)[C@](C)(O)C1[C@H](O)C[C@@]2(C)[C@@H]3CC=C4[C@@H](C[C@H](O)[C@@H](O)C4(C)C)[C@]3(C)C(=O)C[C@]12C (some centres unmarked) [Cucurbitacin IIb]
- CC50 [8]: 240.5 ± 2.38 µM

Compound: C=C1[C@H](OC(=O)c2ccccc2)C[C@H]2[C@@H](/C=C(\C)C(=O)[C@@]3(OC(C)=O)C[C@H](C)[C@H](OC(=O)c4ccccc4)[C@@H]3[C@H]1OC(C)=O)C2(C)C [Euphorbia factor L2]
- CC50 [8]: 114 ± 2.06 µM

Compound: C[C@@H]1CC[C@]2(C(=O)O)CC[C@]3(C)C(=CC[C@@H]4[C@@]5(C)CC[C@H](O[C@@H]6OC[C@H](O)[C@H](O)[C@H]6O)C(C)(C)[C@@H]5CC[C@]43C)[C@@H]2[C@]1(C)O [Ziyuglycoside II]
- CC50 [8]: 57.7 ± 1.76 µM

Compound: CC(C)C1=CC2=CC[C@@H]3[C@](C)(CCC[C@@]3(C)C(=O)O)[C@H]2CC1 [Abietic acid]
- CC50 [1]: 99.2 ± 2 µM
- Antiviral Activity (EC50) CPE (Crystal Violet) [2]: Not inhibit
- Antiviral activity against FMDV infection (result in words) [2]: did not exhibit antiviral activity
- Activity against HSV-2 (result in words) [6]: did not exhibit such activity

Compound: C[C@H](CC(=O)C[C@@H](C)[C@H]1C[C@H](O)[C@@]2(C)C3=C(C(=O)C[C@]12C)[C@@]1(C)CCC(=O)C(C)(C)[C@@H]1C[C@@H]3O)C(=O)O [Ganoderic acid A]
- CC50 [1]: > 500 µM

Compound: NC(=O)c1ncn([C@@H]2O[C@H](CO)[C@@H](O)[C@H]2O)n1 [Ribavirin, reference compound]
- EC50 [3, 10]: 40.9 ± 1.61 µM
- CC50 [1]: > 500 µM
- EC50 [2, 11]: 64.5 ± 1.81 µM
- EC50 [7, 11]: 27.7 ± 1.44 µM

Compound: C[C@H]1O[C@@H](O[C@H]2CC[C@@]3(C)[C@@H](CC[C@]4(C)[C@@H]3C=CC3=C5CC(C)(C)CC[C@]5(CO)[C@H](O)C[C@]34C)[C@]2(C)CO)[C@H](O)[C@@H](O[C@@H]2O[C@H](CO)[C@@H](O)[C@H](O)[C@H]2O)[C@H]1O [Saikosaponin B2]
- CC50 [8]: > 500 µM

Compound: CC1(C)CCC2(C(=O)O)CCC3(CO)C(=CCC4C5(C)CC(O)C(OC6OC(CO)C(O)C(O)C6O)C(C)(C(=O)O)C5CCC43C)C2C1 (centres unmarked) [Tenuifolin]
- CC50 [1]: 54.9 ± 1.74 µM

Compound: CC(C)c1ccc2c(c1O)CC[C@H]1C3=C(CC[C@]21C)C(=O)OC3 [Triptophenolide]
- CC50 [1]: 117 ± 2.07 µM

Compound: C=C1C(=O)[C@]23[C@H](O)[C@H]1CC[C@H]2[C@@]12CO[C@]3(O)[C@@H](O)[C@@H]1C(C)(C)CC[C@@H]2O [Oridonin]
- CC50 [1]: 46.8 ± 1.67 µM

Compound: CC1=CC(=O)[C@@H](O)[C@]2(C)[C@H]3[C@@H](O)[C@H](O)[C@@]4(C)OC[C@@]35[C@@H](C[C@@H]12)OC(=O)[C@H](O)[C@]54O [Bruceine D]
- EC50 [3, 12]: 0.32 ± 0.49 µM
- Antiviral activity against FMDV infection (result in words) [2]: exhibited antiviral activities
- EC50 [2]: 0.25 ± 0.6 µM
- Concentration range of complete inhibition of FMDV [7]: 1 to 2.5 µM
- EC50 [7]: 0.42 ± 0.38 µM
- IC50 [9]: 0.36 µM

Compound: C=CC1(C)C=C2CCC3C(C)(C(=O)O)CCCC3(C)C2CC1 (centres unmarked) [Continentalic acid]
- EC50 [3, 10]: 35 ± 1.54 µM
- CC50 [1]: 88.7 ± 1.82 µM
- Antiviral activity against FMDV infection (result in words) [2]: exhibited antiviral activities
- EC50 [2, 11]: 43.4 ± 1.64 µM
- IC50 [5]: 36.9 ± 1.57 µM
- Inhibition of FMDV 3Dpol (result in words) [5]: moderate inhibition
- Inhibition of viral load (result in words) [7]: moderate inhibition
- EC50 [7, 11]: 68.3 ± 1.83 µM

Compound: CCC(C)(C)C(=O)O[C@H]1C[C@@H](C)C=C2C=C[C@H](C)[C@H](CC[C@@H]3C[C@@H](O)CC(=O)O3)[C@H]21 [Simvastatin, reference compound]
- CC50 [1]: 294.4 ± 2.47 µM

Compound: CC(=O)O[C@H]1[C@H]2[C@@H](OC(=O)Cc3ccccc3)[C@@H](C)C[C@]2(OC(C)=O)C(=O)/C(C)=C/[C@@H]2[C@H](CC[C@@]13CO3)C2(C)C [Euphorbiasteroid]
- CC50 [8]: > 500 µM

Compound: C[C@@H]1C[C@@H]([C@@H](O)C(C)(C)O)O[C@H]2C[C@@]3(C)C(=C12)C[C@H](O)[C@H]1[C@@]2(C)CCC(=O)C(C)(C)[C@@H]2CC[C@@]13C [Alisol F]
- CC50 [8]: 85.2 ± 1.93 µM

Compound: C=C1CC[C@H]2[C@@H](/C=C(\C)C(=O)[C@@]3(O)C[C@H](C)[C@H](O)[C@@H]3[C@@H]1O)C2(C)C [Lathyrol]
- CC50 [8]: 314.6 ± 2.5 µM

Compound: C[C@@H]1CC[C@]2(C(=O)O[C@@H]3O[C@H](CO)[C@@H](O)[C@H](O)[C@H]3O)CC[C@]3(C)C(=CC[C@@H]4[C@@]5(C)C[C@@H](O)[C@H](O)C(C)(C)[C@@H]5CC[C@]43C)[C@@H]2[C@]1(C)O [Rosamultin]
- CC50 [8]: 333.2 ± 2.52 µM

Compound: CC1=C[C@H](O)[C@@H](O)[C@]2(C)[C@H]3[C@@H](O)[C@H](O)[C@@]4(C)OC[C@@]35[C@@H](C[C@@H]12)OC(=O)[C@H](O)[C@]54O [Bruceine E]
- EC50 [3, 10]: 12.9 ± 1.11 µM
- CC50 [1]: 49.6 ± 1.7 µM
- Antiviral activity against FMDV infection (result in words) [2]: exhibited antiviral activities
- EC50 [2, 11]: 18.1 ± 1.26 µM
- IC50 [5]: 26.7 ± 1.43 µM
- Inhibition of FMDV 3Dpol (result in words) [5]: moderate inhibition
- Inhibition of viral load (result in words) [7]: moderate potency
- EC50 [7, 11]: 33.4 ± 1.52 µM

Compound: CC(=O)O[C@@]12CO[C@@H]1C[C@H](O)[C@@]1(C)C(=O)[C@H](O)C3=C(C)[C@@H](O)C[C@@](O)([C@@H](OC(=O)c4ccccc4)[C@H]21)C3(C)C [10-Deacetylbaccatin III]
- CC50 [8]: > 500 µM

Compound: CC(C)[C@]12O[C@H]1[C@@H]1O[C@]13[C@]1(O[C@H]1C[C@H]1C4=C(CC[C@@]13C)C(=O)OC4)[C@@H]2O [Triptolide]
- CC50 [1]: 122 ± 2.09 µM

Compound: C[C@@H]1C(=O)O[C@H]2C[C@@]34[C@H]5C[C@@H](C(C)(C)C)[C@]36[C@@H](OC(=O)[C@@H]6O)O[C@@]4(C(=O)O5)[C@]21O [Ginkgolide A]
- CC50 [1]: 314.2 ± 2.5 µM

Compound: CC(C)=CCC[C@](C)(O)[C@H]1CC[C@]2(C)[C@@H]1[C@H](O)C[C@@H]1[C@@]3(C)CC[C@H](O)C(C)(C)[C@@H]3[C@@H](O[C@@H]3O[C@H](CO)[C@@H](O)[C@H](O)[C@H]3O)C[C@]12C [Ginsenoside Rh1]
- CC50 [1]: 174 ± 2.24 µM

Compound: CC1(C)O[C@H]2CC(=O)OC[C@]23[C@H]2CC[C@@]4(C)[C@H](c5ccoc5)OC(=O)[C@H]5O[C@]54[C@]2(C)[C@@H](O)C(=O)[C@@H]13 [Rutaevin]
- CC50 [1]: 472 ± 2.67 µM
